In patent US20210392892A1, “COMPOSITIONS COMPRISING PYRIDINE CARBOXYLATE HERBICIDES AND ACETYL COA CARBOXYLASE (ACCASE) INHIBITOR HERBICIDES” (Corteva Agriscience LLC, priority 2018, published 2021):
Several values for one entry are separate records, joined by “and”; a condition that tells them apart may be missing. Equal values may be shown once.

Assays:
Assay in all cases: Greenhouse postemergence herbicidal effect (visual injury)
Type in all cases: in vivo
[1] = system: ABUTH, Abutilon theophrasti (velvetleaf)
Text: (§1) Seeds of the desired test plant species were planted in a 90:10% v/v (volume/volume) mixture of PRO-MIX® BX (Premier Tech Horticulture, Quakertown, Pa., USA) and PROFILE® GREENS GRADE™ (Profile Products LLC, Buffalo Grove, Ill., USA) planting mixture, which typically has a pH of 5.2 to 6.2 and an organic matter content of at least 50 percent, in plastic pots with a surface area of 103.2 square centimeters (cm^2). In some aspects, to help ensure good germination and healthy plants, a fungicide treatment and/or other chemical or physical treatment was applied. The plants were grown for 7-36 days (d) in a greenhouse with an approximate 14-hour (h) photoperiod which was maintained at about 23° C. during the day and 22° C. during the night. Nutrients and water were added on a regular basis and supplemental lighting was provided with overhead metal halide 1000-Watt lamps as necessary. The plants were employed for testing when they reached the second or third true leaf stage.
(§2) Emulsifiable concentrates of each of each pyridine carboxylate herbicide (Compound A or Compound B) were prepared at 100 grams acid equivalent per liter (g ae/L). The emulsifiable concentrates also included a safener, cloquintocet-mexyl, at 120 grams active ingredient per liter (g ai/L), unless otherwise noted below. An aliquot of each emulsifiable concentrate was placed in a 25 mL glass vial and diluted with an aqueous mixture of 1.25% (v/v) ACTIROB® B esterified rapeseed oil (Bayer Crop Science, Research Triangle Park, N.C., USA) or MSO® Concentrate with LECI-TECH® methylated soybean oil (Loveland Products, Loveland, Colo., USA) to obtain concentrated stock solutions at the highest application rate for each herbicide, based upon a 12 milliliter (mL) application volume at a rate of 187 liters per hectare (L/ha). The concentrated stock solutions were further diluted with an aqueous mixture of 1.25% v/v ACTIROB® B or MSO® Concentrate with LECI-TECH® to obtain stock solutions at reduced application rates for each herbicide. Spray solutions of the herbicide combinations (Compound A or Compound B plus ACCase inhibitor herbicide) were prepared by adding weighed amounts or aliquots of the ACCase inhibitor herbicide to the stock solutions of Compound A or Compound B to form 12-mL spray solutions in two-way combinations.
(§3) The spray solutions were applied to the plant material with an overhead Mandel track sprayer equipped with 8002E nozzles calibrated to deliver 187 L/ha over an application area of 0.503 square meters (m^2) at a spray height of 18 inches (43 centimeters (cm)) above the average plant canopy. Control plants were sprayed in the same manner with the solvent blank. All pyridine carboxylate herbicide (component a) application rates are given as “g ae/ha” and all ACCase inhibitor herbicide (component b) application rates are given as “g ai/ha.”
(§4) The treated plants and control plants were placed in a greenhouse as described above and watered by sub-irrigation to prevent wash-off of the test compounds. After 20-22 d, the condition of the test plants as compared with that of the control plants was determined visually and scored on a scale of 0 to 100 percent where 0 corresponds to no injury and 100 corresponds to complete kill.

[2] = system: BRAPP, Brachiaria platyphylla (broadleaf signalgrass); conditions: with cloquintocet-mexyl
Text: as §1, §2, §3, §4

[3] = system: GLXMA, Glycine max (soybean)
Text: as §1, §2, §3, §4

[4] = system: LEFCH, Leptochloa chinensis (Chinese sprangletop)
Text: as §1, §2, §3, §4

[5] = system: SORVU, Sorghum vulgare (grain sorghum)
Text: as §1, §2, §3, §4

[6] = 7.5 g ae/ha, without cloquintocet-mexyl
[7] = 10 g ae/ha, without cloquintocet-mexyl

`N#CCOC(=O)c1nc(-c2ccc3cc[nH]c3c2F)c(F)c(N)c1Cl` [Compound A, cyanomethyl 4-amino-3-chloro-5-fluoro-6-(7-fluoro-1H-indol-6-yl)pyridine-2-carboxylate] was tested, and the “% visual injury, Obs” value [1, 6] was 70%, the “% visual injury, Obs” value [1, 7] was 75% and the “% visual injury, Obs” value ([1]; ABUTH, Compound A 7.5 g/ha, Fluazifop 0 g/ha) was 70%. For the same compound, the “% visual injury, Obs” value ([1]; ABUTH, Compound A 10 g/ha, Fluazifop 0 g/ha) was 75%, the “% visual injury, Obs” value ([2]; 7.5 g ae/ha) was 43% and the “% visual injury, Obs” value ([2]; 10 g ae/ha) was 68%. For the same compound, the “% visual injury, Obs” value [3, 6] was 85%, the “% visual injury, Obs” value [3, 7] was 85% and the “% visual injury, Obs” value ([3]; GLXMA, Compound A 7.5 g/ha, Fluazifop 0 g/ha) was 85%. The “% visual injury, Obs” value ([3]; GLXMA, Compound A 10 g/ha, Fluazifop 0 g/ha) was 85%, the “% visual injury, Obs” value [4, 6] was 0% and the “% visual injury, Obs” value [4, 7] was 0% and 5%. For the same compound, the “% visual injury, Obs” value ([4]; LEFCH, Compound A 7.5 g/ha, Fluazifop 0 g/ha) was 0%, the “% visual injury, Obs” value ([4]; LEFCH, Compound A 7.5 g/ha, Haloxyfop-R-methyl 0 g/ha) was 0% and the “% visual injury, Obs” value ([4]; LEFCH, Compound A 7.5 g/ha, Quizalofop-P-ethyl 0 g/ha) was 0%. For the same compound, the “% visual injury, Obs” value ([4]; LEFCH, Compound A 10 g/ha, Fluazifop 0 g/ha) was 0%, the “% visual injury, Obs” value ([4]; LEFCH, Compound A 10 g/ha, Haloxyfop-R-methyl 0 g/ha) was 5% and the “% visual injury, Obs” value ([4]; LEFCH, Compound A 10 g/ha, Quizalofop-P-ethyl 0 g/ha) was 5%. The “% visual injury, Obs” value [5, 6] was 0%, the “% visual injury, Obs” value [5, 7] was 0% and the “% visual injury, Obs” value ([5]; SORVU, Compound A 7.5 g/ha, Fluazifop 0 g/ha) was 0%. For the same compound, the “% visual injury, Obs” value ([5]; SORVU, Compound A 10 g/ha, Fluazifop 0 g/ha) was 0%.
